Experimental data as given in publication PMC9481026 (PLoS ONE, 2022).
≈ marks a conversion by molar mass, not a printed value. Where “and” joins values, the source holds several entries; their conditions need not be identical. Equal values may be shown once. Read-outs that look alike come from different tables or passages of the source.

Experiments:
[1] = in vitro; settings: African green monkey
[2] = tested on: C. neoformans; test: microbe, parasite or virus in culture; format: cell-based; settings: for MIC80: Cryptococcus neoformans, read-out: C. neoformans (MIC80, μM)
[3] = tested on: RVFV strain MP-12; test: microbe, parasite or virus in culture; format: cell-based, Rift Valley fever virus
[4] = tested on: Staphylo-coccus spp.; test: organism not typed; format: cell-based; settings: for MIC80: read-out: Staphylo-coccus spp. (MIC80, μM)
[5] = tested on: E. coli; test: microbe, parasite or virus in culture; format: cell-based; settings: for MIC80: Escherichia coli, read-out: E. coli (MIC80, μM)
[6] = tested on: RVFV strain MP-12; test: microbe, parasite or virus in culture; format: cell-based, Rift Valley fever virus; settings: Rift Valley fever virus, A549, 24 h, read-out: A549 EC50
[7] = tested on: ZIKV; test: microbe, parasite or virus in culture; format: cell-based, Zika virus; settings: for EC50: read-out: ZIKV EC50
[8] = tested on: Vero cells
[9] = molecular target: T1, Human RNase H1 (Homo sapiens, UniProt O60930); test: biochemical
T1 construct: made in house; host or cells: E. coli
T1 sequence (O60930 1-286): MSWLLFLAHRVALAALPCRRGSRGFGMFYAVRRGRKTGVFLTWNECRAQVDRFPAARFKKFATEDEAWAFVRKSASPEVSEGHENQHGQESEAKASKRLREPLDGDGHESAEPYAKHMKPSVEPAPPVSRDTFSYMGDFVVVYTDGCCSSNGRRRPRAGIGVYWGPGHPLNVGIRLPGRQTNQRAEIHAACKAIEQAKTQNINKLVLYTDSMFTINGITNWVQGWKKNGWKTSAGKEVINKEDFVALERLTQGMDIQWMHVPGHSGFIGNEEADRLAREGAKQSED

[10] = tested on: RVFV MP-12; test: microbe, parasite or virus in culture; format: cell-based, Rift Valley fever virus; settings: read-out: Estimated EC50
[11] = tested on: RVFV ZH501; test: microbe, parasite or virus in culture; format: cell-based, Rift Valley fever virus
[12] = tested on: LACV; test: microbe, parasite or virus in culture; format: cell-based, La Crosse virus; settings: for EC50: read-out: LACV EC50
[13] = in vitro; settings: human
[14] = in vitro; settings: human; remark: listed apart in the source
[15] = tested on: HepDES19
[16] = Rift Valley fever virus, Vero, read-out: RVFV (EC50, μM)
[17] = Rift Valley fever virus, Vero, 18 h
[18] = La Crosse virus, Vero C1008, 24 h
[19] = Rift Valley fever virus, Vero, 24 h
[20] = Rift Valley fever virus, Vero, read-out: Vero EC50
[21] = read-out: Human RNase H1 (IC50)

CC(C)c1ccc(O)c(=O)c(O)c1 [Compound 46, β-thujaplicinol, reference compound]
CC50 ([1]; CC50 Vero): > 120 µM
MIC80 [2]: 8 µM (≈ 1.44 µg/mL)
EC50 [3, 16]: 13.8 µM
MIC80 [4]: 20 µM (≈ 3.6 µg/mL)
MIC80 [5]: 44 µM (≈ 7.93 µg/mL)

Cc1cc(O)c(=O)c(O)cc1C(=O)c1cccs1 [Compound 308]
EC50 [6]: 8.4 µM
ZIKV EC50 [7]: not the unrelated flavivirus, Zika virus
EC50 ([7]; Zika virus, Vero C1008, 48 h): > 120 µM
CC50 ([8]; African green monkey): 111 µM
CC50 ([1]; Vero CC50): > 120 µM
IC50 [9]: 46 µM
EC50 ([10]; Rift Valley fever virus, Vero): 1.77 µM
MIC80 [2]: 11 µM (≈ 2.89 µg/mL)
EC50 [11, 17]: 54 µM
LACV EC50 [12]: activity against LACV
EC50 [12, 18]: 15.1 µM
EC50 [3, 19]: 1.2 µM
EC50 [3, 16]: 1.16 µM
EC50 [3, 20]: 1.2 µM
CC50 [13]: 119 µM
MIC80 [4]: 44 µM (≈ 11.5 µg/mL)
MIC80 [5]: 25 µM (≈ 6.56 µg/mL)

Cc1cc(O)c(=O)c(O)cc1C(=O)c1ccco1 [Compound 309]
EC50 [6]: 5.9 µM
ZIKV EC50 [7]: not the unrelated flavivirus, Zika virus
EC50 ([7]; Zika virus, Vero C1008, 48 h): > 120 µM
CC50 ([1]; CC50): > 120 µM
CC50 ([1]; Vero CC50): > 120 µM
LACV EC50 [12]: activity against LACV
EC50 [12, 18]: 14.6 µM
EC50 [3, 19]: 1.6 µM
EC50 [3, 20]: 1.6 µM
CC50 [13]: 98.1 µM

Cc1cc(O)c(=O)c(O)cc1C(=O)c1ccccc1O [Compound 359]
CC50 [14]: 19.4 µM
CC50 ([1]; CC50): > 120 µM
IC50 [9]: 65 µM
EC50 ([10]; Rift Valley fever virus, Vero): 4 µM
MIC80 [2]: 24 µM (≈ 6.53 µg/mL)
EC50 [3, 19]: 5.1 µM

Cc1cc(O)c(=O)c(O)c(O)c1C(=O)c1ccc(-c2ccccc2)cc1 [Compound 362]
CC50 [14]: 5.4 µM
CC50 ([8]; African green monkey): 77.8 µM
CC50 ([1]; CC50): 80 µM
IC50 [9]: 212 µM
EC50 ([10]; Rift Valley fever virus, Vero): 6 µM
MIC80 [2]: 24 µM (≈ 8.36 µg/mL)
EC50 [3, 19]: 2.5 µM
EC50 [3, 16]: 2.6 µM

Cc1cc(O)c(=O)c(O)cc1C(=O)NCc1ccccc1 [Compound 388]
CC50 [8]: > 120 µM
IC50 [9, 21]: 166 µM
EC50 [10]: 19 µM
C. neoformans (MIC80, μM) [2]: 11 µM
CC50 [15]: 19.8 µM
EC50 ([3]; read-out: RVFV (EC50)): 9 µM
Staphylo-coccus spp. (MIC80, μM) [4]: 67 µM
E. coli (MIC80, μM) [5]: 67 µM

Cc1cc(O)c(=O)c(O)cc1C(=O)Nc1ccccc1 [Compound 389]
CC50 [8]: > 120 µM
IC50 [9, 21]: 309 µM
EC50 [10]: 16 µM
C. neoformans (MIC80, μM) [2]: 3.5 µM
CC50 [15]: 26.5 µM
EC50 ([3]; read-out: RVFV (EC50)): 8.8 µM
Staphylo-coccus spp. (MIC80, μM) [4]: 44 µM
E. coli (MIC80, μM) [5]: 44 µM

O=C(Cc1ccccc1)Sc1cccccc1=O [Compound 680]
EC50 [6]: 11.6 µM
EC50 ([7]; Zika virus, Vero C1008, 48 h): 19.5 µM
EC50 [7]: 23 µM
CC50 ([1]; CC50): > 120 µM
CC50 ([1]; Estimated CC50): 0.9 µM
CC50 ([1]; Vero CC50): > 120 µM
IC50 [9]: 652 µM
EC50 ([10]; Rift Valley fever virus, Vero): 0.3 µM
MIC80 [2]: 0.4 µM (≈ 0.103 µg/mL)
EC50 [12, 18]: 31.3 µM
EC50 [3, 19]: 6.3 µM
EC50 [3, 20]: 6.3 µM
MIC80 [4]: 13 µM (≈ 3.33 µg/mL)
MIC80 [5]: 30 µM (≈ 7.69 µg/mL)

CCCCSc1ccc(SCCCC)c(O)c(=O)c1O [Compound 694]
CC50 [14]: 1.8 µM
CC50 ([8]; African green monkey): 22.1 µM
CC50 ([1]; CC50): > 120 µM
EC50 ([10]; Rift Valley fever virus, Vero): 5.62 µM
MIC80 [2]: 2.3 µM (≈ 0.723 µg/mL)
EC50 [3, 19]: 3.7 µM
MIC80 [4]: 9 µM (≈ 2.83 µg/mL)

CC(C)Sc1ccc(SC(C)C)c(O)c(=O)c1O [Compound 696]
CC50 [14]: 14.1 µM
EC50 ([10]; Rift Valley fever virus, Vero): 12 µM
MIC80 [2]: 1.5 µM (≈ 0.43 µg/mL)
EC50 [3, 19]: 6 µM
MIC80 [4]: 13 µM (≈ 3.72 µg/mL)
MIC80 [5]: 20 µM (≈ 5.73 µg/mL)

O=c1c(O)cccc(S(=O)(=O)c2cccc3ccccc23)c1O [Compound 698]
IC50 [9, 21]: 261 µM
EC50 [10]: 8 µM
C. neoformans (MIC80, μM) [2]: 38 µM
CC50 [15]: 13.7 µM
EC50 ([3]; read-out: EC50): 11.7 µM
Staphylo-coccus spp. (MIC80, μM) [4]: 20 µM
E. coli (MIC80, μM) [5]: 44 µM

O=c1c(O)cccc(SCc2ccccc2)c1O [Compound 702]
CC50 ([1]; CC50): > 120 µM
CC50 ([1]; CC50 Vero): 35.6 µM
IC50 [9]: 34 µM
EC50 ([10]; Rift Valley fever virus, Vero): 7 µM
MIC80 [2]: 0.55 µM (≈ 0.143 µg/mL)
EC50 [3, 19]: 8.8 µM
MIC80 [4]: 13 µM (≈ 3.38 µg/mL)
MIC80 [5]: 9 µM (≈ 2.34 µg/mL)

Cc1cc(O)c(=O)c(O)cc1C(=O)N1CCN(C(c2ccc(F)cc2)c2ccc(F)cc2)CC1 [Compound 1017]
CC50 [14]: 3.9 µM
CC50 ([8]; African green monkey): 54.7 µM
CC50 ([1]; CC50): > 120 µM
IC50 [9]: 30 µM
EC50 ([10]; Rift Valley fever virus, Vero): 3.44 µM
MIC80 [2]: 6 µM (≈ 2.8 µg/mL)
EC50 [3, 19]: 8 µM

O=c1nc(NO)ccn1[C@@H]1O[C@H](CO)[C@@H](O)[C@H]1O [EIDD-1931, β-D-N4-Hydroxycytidine, reference compound]
EC50 [7]: 1.7 µM and 1.74 µM
CC50 [8]: > 120 µM
EC50 [10]: 5 µM
EC50 ([11]; read-out: EC50): 30.5 µM
EC50 [12]: 3.6 µM
EC50 ([3]; read-out: EC50): 5.16 µM and 5.2 µM

NC(=O)c1ncn([C@@H]2O[C@H](CO)[C@@H](O)[C@H]2O)n1 [Ribavirin, reference compound]
CC50 ([1]; CC50): > 120 µM
EC50 ([10]; Rift Valley fever virus, Vero): 22 µM
EC50 [11, 17]: 73.6 µM
EC50 [3, 19]: 22 µM
